Experimental data reported in ChEMBL document CHEMBL5727031, “Metabotropic glutamate receptor negative allosteric modulators (NAMS) and uses thereof” (2018).

What was measured:
[1] = (§1) In Vitro GIRK Thallium Flux Assay (2.5 minutes): Human Embryonic Kidney (HEK-293) cell lines co-expressing rat mGlu receptors 2, 3, 4, 6, 7 or 8 and G protein-coupled inwardly-rectifying potassium (GIRK) channels_ENREF_54 were grown in Growth Media containing 45% DMEM, 45% F-12, 10% FBS, 20 mM HEPES, 2 mM L-glutamine, antibiotic/antimycotic, non-essential amino acids, 700 μg/ml G418, and 0.6 μg/ml puromycin at 37° C. in the presence of 5% CO2. All cell culture reagents were purchased from Invitrogen Corp. (Carlsbad, Calif.) unless otherwise noted. Compound activity at the group II (mGlu2 and mGlu3) mGlus was assessed using thallium flux through GIRK channels. Briefly, cells were plated into 384-well, black-walled, clear-bottomed poly-D-lysine-coated plates at a density of 15,000 cells/20 μL/well in DMEM containing 10% dialyzed FBS, 20 mM HEPES, and 100 units/mL penicillin/streptomycin (assay media). Plated cells were incubated overnight at 37° C. in the presence of 5% CO2. The following day, the medium was exchanged from the cells to assay buffer [Hanks' balanced salt solution (Invitrogen) containing 20 mM HEPES, pH 7.3] using an ELX405 microplate washer (BioTek), leaving 20 μL/well, followed by the addition of 20 μL/well FluoZin2-AM (330 nM final concentration) indicator dye (Invitrogen; prepared as a stock in DMSO and mixed in a 1:1 ratio with Pluronic acid F-127) in assay buffer. Cells were incubated for 1 h at room temperature, and the dye exchanged to assay buffer using an ELX405, leaving 20 μL/well. Test compounds were diluted to 2 times their final desired concentration in assay buffer (0.3% DMSO final concentration). Agonists were diluted in thallium buffer [125 mM sodium bicarbonate (added fresh the morning of the experiment), 1 mM magnesium sulfate, 1.8 mM calcium sulfate, 5 mM glucose, 12 mM thallium sulfate, and 10 mM HEPES, pH 7.3] at 5 times the final concentration to be assayed. Cell plates and compound plates were loaded onto a kinetic imaging plate reader (FDSS 6000 or 7000; Hamamatsu Corporation, Bridgewater, N.J.). Appropriate baseline readings were taken (10 images at 1 Hz; excitation, 470±20 nm; emission, 540±30 nm) and test compounds were added in a 20 μL volume and incubated for either 2.5 min or 60 min as indicated before the addition of 10 μL of thallium buffer with or without agonist. After the addition of agonist, data were collected for approximately an additional 2.5 min. Data were analyzed using Excel (Microsoft Corp, Redmond, Wash.). The slope of the fluorescence increase beginning 5 s after thallium/agonist addition and ending 15 s after thallium/agonist addition was calculated, corrected to vehicle and maximal agonist control slope values, and plotted in using either XLfit (ID Business Solutions Ltd) or Prism software (GraphPad Software, San Diego, Calif.) to generate concentration-response curves. Potencies were calculated from fits using a four-point parameter logistic equation. For concentration-response curve experiments, compounds were serially diluted 1:3 into 10 point concentration response curves and were transferred to daughter plates using an Echo acoustic plate reformatter (Labcyte, Sunnyvale, Calif.). Test compounds were applied and followed by EC80 concentrations of glutamate.
[2] = as §1, with “Assay (60” for “Assay (2.5”, “additional 60” for “additional 2.5”
[3] = as §1; remark: listed apart in the source
[4] = as §1, with “Assay (60” for “Assay (2.5”, “additional 60” for “additional 2.5”; remark: listed apart in the source

SMILES	EC50 ([1]; HEK293, 2.5 min) [µM]	EC50 ([2]; HEK293, 1 h) [µM]	EC50 ([3]; HEK293, 2.5 min) [µM]	EC50 ([4]; HEK293, 1 h) [µM]	also measured
c1ccc(-c2cccc(-c3nc(-c4ccccc4)n(-c4ccccc4)n3)c2)cc1	> 10	> 10	–	–	–
Fc1cccc(-c2cccc(-c3nsc(-c4ccoc4)n3)c2)c1	0.17	0.11	3.43	1.23	–
Fc1ccc(-c2cccc(-c3csc(-c4cc5ccccc5s4)n3)c2)cc1	> 10	1.92	> 10	> 10	–
COc1ccc(-c2cccc(-c3csc(-c4ccccc4)n3)c2)cc1	1.73	2.14	1.77	2.86	–
c1ccc(-c2cccc(-c3nc(-c4ccoc4)n(-c4ccccc4)n3)c2)cc1	> 10	3.78	> 10	2.63	–
O=C(O)c1cc(-c2cccc(-c3nc(-c4cc(C(F)(F)F)cc(C(F)(F)F)c4)cc(C(F)(F)F)n3)c2)ccc1F	–	–	–	> 10	–
O=C1CC(c2ccnc(Br)c2)=Nc2ccc(-c3ccc(C(F)(F)F)cc3C(F)(F)F)cc2N1	–	–	–	> 10	–
c1ccc(-c2nc(-c3cccc(-c4cccc(-c5nn[nH]n5)c4)c3)cs2)cc1	–	–	–	> 10	–
NS(=O)(=O)c1cccc(-c2cn(-c3nc(-c4ccc(C(F)(F)F)nc4)cc(C(F)(F)F)n3)cn2)c1	–	> 10	–	–	–
O=C(O)c1cc(-c2ccc(-c3csc(-c4ccccc4)n3)cc2)ccc1F	–	> 30	–	–	–
Cc1cc(NC(=O)OC(C)(C)C)c(NC(=O)CC(=O)c2cccc(Oc3ccccc3)c2)cc1C(F)(F)F	2.21	1.19	2.62	1.93	–
Fc1ccc(-c2cccc(-c3csc(-c4cc5ccccc5o4)n3)c2)cc1	2.57	1.93	3.32	> 10	–
c1ccc(-c2cccc(-c3csc(-c4ccccc4)n3)c2)cc1	–	–	–	> 10	–
Fc1ccc(-c2cccc(-c3nsc(-c4ccoc4)n3)c2)cc1	3.63	3.71	> 10	> 10	–
O=C(O)c1cc(F)cc(-c2cccc(-c3nc(-c4ccoc4)cc(C(F)(F)F)n3)c2)c1	–	–	–	–	EC50 [1]: 0.35 µM; EC50 [2]: 0.31 µM; EC50 [3]: 2.21 µM; EC50 [4]: 1.56 µM
c1ccc(-c2cccc(-c3coc(-c4ccccc4)n3)c2)cc1	> 10	> 10	> 30	> 30	–
O=C(O)c1cccc(-c2cccc(-c3cn(-c4ccccc4)c(-c4ccccc4)n3)c2)c1	–	> 10	–	–	–
Cc1cc(NC(=O)OC(C)(C)C)c(NC(=O)CC(=O)c2cccc(-n3ccc4ccccc43)c2)cc1C(F)(F)F	–	> 10	–	> 10	–
c1ccc(-c2cccc(-c3nsc(-c4ccccc4)n3)c2)cc1	0.32	0.05	2.28	0.45	–
Fc1ccc(-c2cccc(-c3csc(-c4ccc(C(F)(F)F)nc4)n3)c2)cc1	1.35	0.85	3.11	2.55	–
c1ccc(-c2cccc(-c3n[nH]c(-c4ccccc4)n3)c2)cc1	> 10	> 30	> 30	> 30	–
CC(C)n1nc(-c2cccc(-c3ccccc3)c2)nc1-c1ccccc1	> 10	> 30	> 10	> 10	–
Fc1ccc(-c2cccc(-c3csc(-c4ccccc4)n3)c2)cc1	0.33	0.48	1.21	> 10	–
Cc1cc2c(cc1C(F)(F)F)NC(=O)CC(c1cccc(C#Cc3ccccc3)c1)=N2	–	> 10	–	> 10	–
N#Cc1cccc(C2=Nc3ccc(Br)cc3NC(=O)C2)c1	–	> 30	–	> 30	–
c1ccc(-c2nc(-c3cccc(-c4ccco4)c3)nn2-c2ccccc2)cc1	> 10	> 30	0.21	> 30	–
COc1ccc(-n2nc(-c3cccc(-c4ccccc4)c3)nc2-c2ccccc2)cc1	> 10	6.58	2.96	0.46	–
Cc1cc2c(cc1C(F)(F)F)NC(=O)CC(c1cccc(Br)c1)=N2	–	> 10	–	> 10	–

SMILES	EC50 ([1]; HEK293, 2.5 min) [µM]	EC50 ([2]; HEK293, 1 h) [µM]	EC50 ([3]; HEK293, 2.5 min) [µM]	EC50 ([4]; HEK293, 1 h) [µM]	also measured
O=C(O)c1ccccc1-c1cccc(-c2nc(-c3ccc(C(F)(F)F)nc3)cc(C(F)(F)F)n2)c1	–	> 10	–	> 10	–
O=C(O)c1ccccc1-c1cccc(-c2csc(-c3ccccc3)n2)c1	–	> 10	–	> 10	–
FC(F)(F)c1ccc(-c2nc(-c3cccc(-c4ccccc4)c3)nn2-c2ccccc2)cn1	> 10	> 10	5.56	0.85	–
c1ccc(-c2cccc(-c3csc(-c4cccc5ccccc45)n3)c2)cc1	> 10	> 10	> 30	> 30	–
Cc1cc2c(cc1C(F)(F)F)NC(=O)CC(c1cccc(OCc3ccccc3)c1)N2 (configuration not stated)	–	> 10	–	–	–
O=C(O)c1cccc(-c2cccc(-c3coc(-c4ccccc4)n3)c2)c1	–	–	–	> 10	–
Cn1nc(-c2cccc(-c3ccccc3)c2)nc1-c1ccccc1	0.59	1.48	> 10	> 10	–
Clc1ccccc1-c1cccc(-c2csc(-c3ccccc3)n2)c1	> 30	> 30	> 10	> 10	–
Fc1cccc(-c2cccc(-c3csc(-c4ccccc4)n3)c2)c1	0.64	0.35	> 10	> 30	–
Cc1cc2c(cc1C(F)(F)F)NC(=O)CC(c1cccc(Oc3ncccn3)c1)N2 (racemic)	> 10	–	–	–	–
Cc1cc2c(cc1C(F)(F)F)NC(=O)CC(c1cccc(Oc3ccccc3)c1)N2 (configuration not stated)	–	> 10	–	> 10	–
O=C(O)c1cc(-c2cccc(-c3cnc(-c4ccccc4)s3)c2)ccc1F	–	–	–	> 10	–
Cc1cc(-c2cccc(C3CC(=O)Nc4cc(NC(=O)OCc5ccccc5)ccc4N3)c2)cc(C)n1 (racemic)	> 10	–	–	–	–
O=C(O)c1ccc(-c2cccc(-c3nc(-c4ccc(C(F)(F)F)nc4)cc(C(F)(F)F)n3)c2)cc1	–	> 10	–	> 10	–
Cc1cc2c(cc1C(F)(F)F)NC(=O)CC(c1cccc(C#C[Si](C)(C)C)c1)N2 (configuration not stated)	–	4.47	–	4.53	–
O=C(O)c1cc(-c2cccc(Oc3nc(-c4ccco4)cc(C(F)(F)F)n3)c2)ccc1F	–	> 30	–	–	–
Cc1ccccc1-c1cc(C(F)(F)F)nc(-c2cccc(-c3ccc(F)c(C(=O)O)c3)c2)n1	–	–	–	> 10	–
O=C(O)c1ccccc1-c1cccc(-c2nc(-c3ccccc3)n(-c3ccccc3)n2)c1	–	> 30	–	> 10	–
Cc1cc2c(cc1C(F)(F)F)NC(=O)CC(c1cccc(Oc3cccc(Br)c3)c1)=N2	–	> 10	–	–	–
O=C1CC(c2cccc(Br)c2)Nc2ccc(NC(=O)OCc3ccccc3)cc2N1 (configuration not stated)	–	> 10	–	–	–
COc1ccc(-c2cccc(-c3nc(-c4ccco4)cc(C(F)(F)F)n3)c2)cc1C(=O)O	–	–	–	> 10	–
O=C(O)c1cccc(-c2cccc(-c3cc(-c4ccccc4)sn3)c2)c1	–	–	–	> 10	–
O=C(O)c1cccc(-c2cccc(-c3nc(-c4ccccc4)nn3-c3ccccc3)c2)c1	–	> 10	–	> 10	–
CC(C)(C)OC(=O)Nc1ccc(C(=O)OC(C)(C)C)cc1NC(=O)CC(=O)c1ccnc(C#N)c1	–	> 30	–	–	–
Cc1noc(C)c1-c1cc(C(F)(F)F)nc(-c2cccc(-c3ccc(F)c(C(=O)O)c3)c2)n1	–	> 10	–	> 10	–
Cc1cc(-c2cccc(C3CC(=O)Nc4cc(NC(=O)Oc5ccccc5)ccc4N3)c2)cc(C)n1 (configuration not stated)	–	> 10	–	> 10	–
Cc1cc2c(cc1C(F)(F)F)NC(=O)CC(c1cccc(Oc3cc(F)cc(F)c3)c1)=N2	–	> 10	–	–	–
